Results from the supplement of paper PMC13380429.

Legend:
[1] = test system: Vero E6; assay: drug sensitivity score (DSS) for viability; higher = more toxic; extreme values may be limits of the assay; details: 72 h
[2] = test system: U2OS; assay: as above; details: 72 h
[3] = test system: HepG2; assay: as above; details: 72 h
[4] = test system: Calu-3; assay: as above; details: 72 h
[5] = test system: Caco-2; assay: as above; details: 72 h
[6] = test system: U2OS; assay: relative viability EC50 (midpoint between 100% and the lowest measured viability); higher = less toxic; details: 72 h
[7] = test system: HepG2; assay: as above; details: 72 h
[8] = test system: A549-ACE2 infected with SARS-CoV-2; assay: cell count relative to DMSO; higher = less toxic; details: 24 h
[9] = test system: A549-ACE2 infected with SARS-CoV-2; assay: morphology score (similarity to uninfected cells); higher = more like uninfected cells; details: 24 h
[10] = test system: A549-ACE2 infected with SARS-CoV-2; assay: SARS-CoV-2 infection rate relative to DMSO; higher = more infection; details: 24 h
[11] = test system: A549-ACE2; assay: drug-induced phospholipidosis relative to tamoxifen; higher = more phospholipidosis
[12] = test system: Vero E6; assay: cell viability relative to DMSO; higher = less toxic; details: 72 h
[13] = test system: U2OS; assay: as above; details: 72 h
[14] = test system: HepG2; assay: as above; details: 72 h
[15] = test system: Calu-3; assay: as above; details: 72 h
[16] = test system: Caco-2; assay: as above; details: 72 h
[17] = test system: Vero E6; assay: relative viability EC50 (midpoint between 100% and the lowest measured viability); higher = less toxic; details: 72 h
[18] = test system: Calu-3; assay: as above; details: 72 h
[19] = test system: Caco-2; assay: as above; details: 72 h

Cn1cc(-c2ccc3c(c2)CCN3C(=O)Cc2cccc(C(F)(F)F)c2)c2c(N)ncnc21
Details | drug sensitivity score | relative viability EC50 [µM]
[1] | 1.2 | –
[2] | 1.5 | –
[3] | 2.6 | –
[4] | 2.4 | –
[5] | 4.7 | –
[6] | – | > 10
[7] | – | 3.28

Details | SARS-CoV-2 infection rate, [10] [%] | cell count, [8] [%] | cell viability, [12] [%] | cell viability, [13] [%] | cell viability, [14] [%] | cell viability, [15] [%] | cell viability, [16] [%] | morphology score, [9]
1 nM | – | – | 95.3 | 103 | 87.4 | 106 | 100 | –
10 nM | – | – | 94 | 97.4 | 98.3 | 94 | 86.6 | –
0.1 µM | 102 | 97 | – | – | – | – | – | 0.02
100 nM | – | – | 96.6 | 102 | 84 | 96 | 66.9 | –
0.3 µM | 96 | 104 | – | – | – | – | – | 0.18
1 µM | 102 | 105 | – | – | – | – | – | 0.12
1000 nM | – | – | 107 | 95.2 | 101 | 92.5 | 103 | –
3 µM | 87 | 112 | – | – | – | – | – | 0.4
10000 nM | – | – | 67.1 | 77.3 | 48.6 | 68.9 | 61.6 | –

drug-induced phospholipidosis [%], [11]
Details | 0.3 µM | 0.833333 µM | 3.33333 µM | 6.66667 µM | 10 µM | 30 µM
24 h | 1.57 | 0.73 | 1.92 | 3.67 | 12.1 | 28.6
48 h | 3.63 | 1.52 | 3.02 | 3.48 | 8.65 | 18.6
72 h | 2.2 | 0.314 | 1.31 | 3.34 | 7.89 | 22.2

NCCc1c[nH]c2ccc(C(N)=O)cc12 [5-carboxamidotryptamine]
Details | drug sensitivity score | relative viability EC50 [µM]
[1] | 0 | –
[2] | 0 | –
[3] | 0 | –
[4] | 0 | –
[5] | 0 | –
[6] | – | > 10
[7] | – | > 10
[17] | – | > 10
[18] | – | > 10
[19] | – | > 10

Details | SARS-CoV-2 infection rate, [10] [%] | cell count, [8] [%] | cell viability, [12] [%] | cell viability, [13] [%] | cell viability, [14] [%] | cell viability, [15] [%] | cell viability, [16] [%] | morphology score, [9]
1 nM | – | – | 98.8 | 101 | 105 | 93.2 | 97.8 | –
10 nM | – | – | 104 | 97.8 | 96.2 | 104 | 96.5 | –
100 nM | – | – | 103 | 99.1 | 95.2 | 96 | 102 | –
0.3 µM | 100 | 98 | – | – | – | – | – | -0.09
1000 nM | – | – | 97.4 | 98 | 102 | 104 | 102 | –
3 µM | 99 | 96 | – | – | – | – | – | -0.06
10 µM | 101 | 105 | – | – | – | – | – | -0.11
10000 nM | – | – | 97.2 | 99.5 | 98.9 | 102 | 98.7 | –
30 µM | 93 | 102 | – | – | – | – | – | 0.09

drug-induced phospholipidosis [%], [11]
Details | 0.3 µM | 0.833333 µM | 3.33333 µM | 6.66667 µM | 10 µM | 30 µM
24 h | 1.09 | -2.6 | -3.13 | -2 | -0.66 | 2.03
48 h | 2.16 | -0.39 | 0.18 | -1.08 | -0.13 | 2.67
72 h | 3.22 | -1.61 | -0.768 | -1.96 | 0.562 | 3.08
